According to article PMC2848180 (American journal of obstetrics and gynecology, 2010):
Several values for one entry are separate records, joined by “and”; a condition that tells them apart may be missing. Equal entries are not always repeated.

Tests used:
[1] = target: MRP1 (Homo sapiens, UniProt P33527); conditions: placental IOVs
[2] = tested on: P-gp, BCRP, and MRP1; conditions: 100 nM drug, 1 μM KO143, placental IOVs, 1 min
[3] = target: T1, P-gp (Homo sapiens, UniProt P08183); conditions: placental IOVs
T1 sequence (P08183 whole entry): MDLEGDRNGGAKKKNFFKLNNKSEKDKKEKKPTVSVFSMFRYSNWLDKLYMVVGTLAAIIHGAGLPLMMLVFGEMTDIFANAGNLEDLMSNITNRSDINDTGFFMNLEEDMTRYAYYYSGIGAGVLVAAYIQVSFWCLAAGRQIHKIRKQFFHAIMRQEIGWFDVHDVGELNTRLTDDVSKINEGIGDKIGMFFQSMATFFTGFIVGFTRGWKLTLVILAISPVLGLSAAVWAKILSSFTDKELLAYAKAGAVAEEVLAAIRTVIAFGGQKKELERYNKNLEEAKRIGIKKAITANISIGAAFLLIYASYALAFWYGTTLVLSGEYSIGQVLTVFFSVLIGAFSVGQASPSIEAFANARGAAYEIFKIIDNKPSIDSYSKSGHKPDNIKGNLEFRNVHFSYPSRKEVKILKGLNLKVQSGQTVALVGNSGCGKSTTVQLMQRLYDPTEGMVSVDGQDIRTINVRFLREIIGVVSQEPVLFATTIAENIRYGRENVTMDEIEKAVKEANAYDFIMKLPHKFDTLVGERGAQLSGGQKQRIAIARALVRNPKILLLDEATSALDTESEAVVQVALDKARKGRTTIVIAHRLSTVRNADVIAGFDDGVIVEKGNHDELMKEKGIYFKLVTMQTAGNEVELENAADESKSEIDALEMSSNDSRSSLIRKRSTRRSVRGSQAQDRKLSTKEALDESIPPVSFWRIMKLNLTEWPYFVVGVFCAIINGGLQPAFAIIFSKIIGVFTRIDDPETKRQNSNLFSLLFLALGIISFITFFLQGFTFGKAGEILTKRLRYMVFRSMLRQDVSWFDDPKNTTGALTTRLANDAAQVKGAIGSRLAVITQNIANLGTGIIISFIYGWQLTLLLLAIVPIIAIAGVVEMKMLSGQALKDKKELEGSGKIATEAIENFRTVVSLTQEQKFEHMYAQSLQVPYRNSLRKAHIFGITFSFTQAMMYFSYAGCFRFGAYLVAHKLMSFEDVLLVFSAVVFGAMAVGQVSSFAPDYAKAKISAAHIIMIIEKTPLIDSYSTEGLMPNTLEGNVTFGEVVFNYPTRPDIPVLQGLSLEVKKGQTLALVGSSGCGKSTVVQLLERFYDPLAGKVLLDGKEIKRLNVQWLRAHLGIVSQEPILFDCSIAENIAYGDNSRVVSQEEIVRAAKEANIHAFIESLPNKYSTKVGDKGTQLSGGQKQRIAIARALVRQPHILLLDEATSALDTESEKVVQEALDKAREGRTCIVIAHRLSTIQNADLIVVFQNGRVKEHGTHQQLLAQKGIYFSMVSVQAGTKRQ

[4] = tested on: placental ABC transporters (placental IOVs); type: in vitro ADME, human; conditions: for total ATP-dependent uptake by placental IOVs: 100 nM radiolabeled drug, 1 min, pool of 60 term placentas
[5] = target: T1, P-gp; experiment: Inhibition of [3H]-rosiglitazone uptake by placental IOVs by cold metformin; type: in vitro ADME
[6] = target: T2, BCRP (Homo sapiens, UniProt Q9UNQ0); conditions: 100 nM drug, 25 nM KO143, placental IOVs, 1 min
T2 sequence (Q9UNQ0 1-655): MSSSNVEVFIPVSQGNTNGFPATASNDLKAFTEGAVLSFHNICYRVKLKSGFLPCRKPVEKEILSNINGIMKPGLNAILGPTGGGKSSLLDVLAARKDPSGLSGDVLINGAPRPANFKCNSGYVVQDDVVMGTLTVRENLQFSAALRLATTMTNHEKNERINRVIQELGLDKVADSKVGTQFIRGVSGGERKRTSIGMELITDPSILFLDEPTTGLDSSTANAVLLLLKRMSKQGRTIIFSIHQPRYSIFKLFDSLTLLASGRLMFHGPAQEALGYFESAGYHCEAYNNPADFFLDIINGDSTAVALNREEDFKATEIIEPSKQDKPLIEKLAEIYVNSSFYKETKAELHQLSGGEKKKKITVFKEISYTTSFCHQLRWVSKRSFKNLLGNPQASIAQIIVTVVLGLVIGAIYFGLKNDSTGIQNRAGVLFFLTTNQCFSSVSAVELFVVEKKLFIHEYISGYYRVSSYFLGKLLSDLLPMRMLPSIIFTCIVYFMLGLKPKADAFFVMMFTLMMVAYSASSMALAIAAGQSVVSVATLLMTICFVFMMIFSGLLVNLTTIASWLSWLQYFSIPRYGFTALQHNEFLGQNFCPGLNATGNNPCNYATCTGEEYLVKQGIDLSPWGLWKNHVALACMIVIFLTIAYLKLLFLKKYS

[7] = target: T1, P-gp; conditions: placental brush border membrane vesicles; cited from earlier work
[8] = 100 nM, ABC transporters examined

MRP1, sequence (P33527 whole entry): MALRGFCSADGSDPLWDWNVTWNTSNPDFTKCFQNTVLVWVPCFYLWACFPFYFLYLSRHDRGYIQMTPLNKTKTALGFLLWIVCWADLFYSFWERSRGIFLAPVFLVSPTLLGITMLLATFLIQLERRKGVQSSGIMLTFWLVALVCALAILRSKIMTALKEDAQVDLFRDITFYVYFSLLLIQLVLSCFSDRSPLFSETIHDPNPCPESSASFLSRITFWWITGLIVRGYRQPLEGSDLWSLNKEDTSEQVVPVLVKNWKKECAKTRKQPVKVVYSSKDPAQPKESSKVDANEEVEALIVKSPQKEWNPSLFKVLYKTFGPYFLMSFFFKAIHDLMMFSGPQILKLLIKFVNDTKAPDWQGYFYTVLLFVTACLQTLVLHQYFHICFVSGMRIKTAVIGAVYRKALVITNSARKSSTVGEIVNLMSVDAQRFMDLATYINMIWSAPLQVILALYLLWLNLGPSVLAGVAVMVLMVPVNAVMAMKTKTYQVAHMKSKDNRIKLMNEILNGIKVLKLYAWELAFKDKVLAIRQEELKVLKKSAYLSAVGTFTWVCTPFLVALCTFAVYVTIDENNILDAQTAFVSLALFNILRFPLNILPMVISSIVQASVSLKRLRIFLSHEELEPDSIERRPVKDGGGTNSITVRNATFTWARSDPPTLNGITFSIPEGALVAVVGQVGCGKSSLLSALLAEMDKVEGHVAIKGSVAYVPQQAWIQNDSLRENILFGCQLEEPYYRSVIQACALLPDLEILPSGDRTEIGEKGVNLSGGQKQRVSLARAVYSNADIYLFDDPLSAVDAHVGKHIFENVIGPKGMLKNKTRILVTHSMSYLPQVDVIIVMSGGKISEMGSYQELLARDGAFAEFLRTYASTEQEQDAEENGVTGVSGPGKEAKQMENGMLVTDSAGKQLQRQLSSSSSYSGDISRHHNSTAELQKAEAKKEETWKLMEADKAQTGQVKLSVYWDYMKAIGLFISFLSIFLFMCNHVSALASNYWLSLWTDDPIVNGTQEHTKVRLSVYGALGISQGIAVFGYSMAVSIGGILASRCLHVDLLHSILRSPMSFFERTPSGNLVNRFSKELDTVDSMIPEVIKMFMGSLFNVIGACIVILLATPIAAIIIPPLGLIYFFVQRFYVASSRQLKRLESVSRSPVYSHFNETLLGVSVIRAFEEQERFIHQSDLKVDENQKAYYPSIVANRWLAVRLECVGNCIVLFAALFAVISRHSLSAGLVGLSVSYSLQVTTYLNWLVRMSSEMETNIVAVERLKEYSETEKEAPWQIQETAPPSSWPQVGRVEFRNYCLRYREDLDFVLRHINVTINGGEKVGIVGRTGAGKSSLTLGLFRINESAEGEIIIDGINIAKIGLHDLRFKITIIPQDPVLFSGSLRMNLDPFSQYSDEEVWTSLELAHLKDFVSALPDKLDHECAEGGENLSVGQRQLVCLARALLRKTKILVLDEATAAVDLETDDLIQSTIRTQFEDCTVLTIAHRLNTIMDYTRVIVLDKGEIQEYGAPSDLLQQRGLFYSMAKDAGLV

CN(C)C(=N)N=C(N)N [metformin]
decrease of uptake on inhibition of MRP1 by indomethacin (transport by MRP1) ([1]; 100 nM drug, 100 μM indomethacin, 1 min): no effect
decrease of uptake on total inhibition of P-gp, BCRP, and MRP1 using 1 μM KO143 [2]: 89 ± 6%
decrease of uptake on inhibition of P-gp by verapamil (transport by P-gp) ([3]; 100 nM drug, 600 μM verapamil, 1 min): 58 ± 20% and 58 ± 10%
apparent Kt of ATP-dependent transport by P-gp [3]: 100 ± 85 nM
total ATP-dependent uptake by placental IOVs [4]: 35 pmol/mg protein*min
fold greater total transport than glyburide [4, 8]: 10 fold
fold greater total transport than rosiglitazone [4, 8]: 30 fold
IC50 [5]: ~600 nM
inhibition at 1 min ([5]; human, placental inside-out vesicles (IOVs), probe [3H]-rosiglitazone, 100 nM): 69 ± 6%
decrease of uptake on inhibition of BCRP by 25 nM KO143 (transport by BCRP) [6]: 25 ± 14% and 25 ± 8%

CN(CCOc1ccc(CC2SC(=O)NC2=O)cc1)c1ccccn1 (stereo not shown) [rosiglitazone]
total ATP-dependent uptake by placental IOVs [4]: 1.2 ± 0.2 pmol/mg protein*min

CC(=O)O[C@H]1C(=O)[C@@]2(C)[C@H]([C@H](OC(=O)c3ccccc3)[C@]3(O)C[C@H](OC(=O)[C@H](O)[C@@H](NC(=O)c4ccccc4)c4ccccc4)C(C)=C1C3(C)C)[C@]1(OC(C)=O)CO[C@@H]1C[C@@H]2O [paclitaxel]
Kt of P-gp-mediated transport [7]: 66 ± 38 nM
Vmax of P-gp-mediated transport [7]: 20 ± 3 pmol/mg protein*min

COc1ccc(Cl)cc1C(=O)NCCc1ccc(S(=O)(=O)NC(=O)NC2CCCCC2)cc1 [glyburide]
apparent Kt of ATP-dependent transport by MRP1 [1]: 358 ± 195 nM
decrease of uptake on total inhibition of P-gp, BCRP, and MRP1 using 1 μM KO143 [2]: 78 ± 4%
total ATP-dependent uptake by placental IOVs [4]: 3.2 ± 0.3 pmol/mg protein*min
